Reference: article PMC8196580, “Identification of Kaurane-Type Diterpenes as Inhibitors of Leishmania Pteridine Reductase I” (Molecules, 2021)
Where two headings read alike, the source gives them in different places.

Key:
[1] = test system: L. major; test: ChEMBL dataset of pIC50 values against L. major used for the RF model (Table S1); assay type: cell-based, Leishmania major; note: call rule not given here
[2] = test system: L. major; parameters: method as in ChEMBL; details: ref ChEMBL, cited from earlier work
[3] = Active/Inactive class assigned to the ChEMBL pIC50 value for Random forest model construction, ref ChEMBL
[4] = ChemBL structures with pIC50 values used for Random forest model construction, L. major
[5] = Active/Inactive class assigned to ChemBL structures for Random forest model construction (Table S1)
[6] = ChemBL structures with pIC50 values used for Random forest model construction (Table S1)

Row | Compound | Outcome [1, 3] | pIC50 Value [2, 4] | Outcome [1, 5] | pIC50 Value [2, 6]
1 | O=[N+]([O-])c1ccc(-c2nnc(NCc3cn(Cc4ccccc4)nn3)s2)o1 [CHEMBL1951522] | Inactive | 4.71 | – | –
2 | O=[N+]([O-])c1ccc(-c2nnc(NCc3cn(Cc4ccccc4F)nn3)s2)o1 [CHEMBL1951523] | Inactive | 4.72 | – | –
3 | O=[N+]([O-])c1ccc(-c2nnc(NCc3cn(Cc4ccc(F)cc4)nn3)s2)o1 [CHEMBL1951524] | Inactive | 4.67 | – | –
4 | O=[N+]([O-])c1ccc(-c2nnc(NCc3cn(Cc4ccccc4Cl)nn3)s2)o1 [CHEMBL1951525] | Inactive | 4.72 | – | –
5 | O=[N+]([O-])c1ccc(-c2nnc(NCc3cn(Cc4cccc(Cl)c4)nn3)s2)o1 [CHEMBL1951526] | Inactive | 3.97 | – | –
6 | O=[N+]([O-])c1ccc(-c2nnc(NCc3cn(Cc4ccc(Cl)cc4)nn3)s2)o1 [CHEMBL1951527] | Inactive | 4.05 | – | –
7 | Cc1ccccc1Cn1cc(CNc2nnc(-c3ccc([N+](=O)[O-])o3)s2)nn1 [CHEMBL1951528] | Inactive | 4.60 | – | –
8 | Cc1cccc(Cn2cc(CNc3nnc(-c4ccc([N+](=O)[O-])o4)s3)nn2)c1 [CHEMBL1951529] | Inactive | 4.66 | – | –
9 | Cc1ccc(Cn2cc(CNc3nnc(-c4ccc([N+](=O)[O-])o4)s3)nn2)cc1 [CHEMBL1951530] | Inactive | 4.91 | – | –
10 | O=[N+]([O-])c1ccc(Cn2cc(CNc3nnc(-c4ccc([N+](=O)[O-])o4)s3)nn2)cc1 [CHEMBL1951531] | Inactive | 4.49 | – | –
11 | O=[N+]([O-])c1ccc(-c2nnc(NCc3cn(Cc4c(F)cccc4Cl)nn3)s2)o1 [CHEMBL1951532] | Inactive | 4.76 | – | –
12 | O=[N+]([O-])c1ccc(-c2nnc(NCc3cn(Cc4cccc(Cl)c4Cl)nn3)s2)o1 [CHEMBL1951533] | Inactive | 3.99 | – | –
13 | O=[N+]([O-])c1ccc(-c2nnc(NCc3cn(Cc4ccc(Cl)cc4Cl)nn3)s2)o1 [CHEMBL1951534] | Inactive | 4.70 | – | –
14 | O=[N+]([O-])c1ccc(-c2nnc(NCc3cn(Cc4ccc(Cl)c(Cl)c4)nn3)s2)o1 [CHEMBL1951535] | Inactive | 3.88 | – | –
15 | COc1cc(C)cc2c1C(=O)C=C(c1c(C)c(OC)c3ccc(O)c(OC)c3c1O)C2=O [CHEMBL2071223] | – | – | Active | 9.82
16 | COc1c(C)cc(O)c2c(OC)cccc12 [CHEMBL2071224] | Inactive | 4.00 | – | –
17 | COc1cc(C)cc2c1C(=O)C=C(C1=C(C)C(=O)c3ccc(O)c(OC)c3C1=O)C2=O [CHEMBL2071225] | – | – | Active | 10.28
18 | COc1cc(C)cc2c1C(=O)C=C(c1c(C)cc3ccc(O)c(OC)c3c1O)C2=O [CHEMBL2071226] | – | – | Active | 9.74
19 | COc1c(C)cc2cccc(OC)c2c1O [CHEMBL2071227] | Inactive | 4.35 | – | –
20 | COc1cccc2cc(C)cc(O)c12 [CHEMBL2071228] | Inactive | 4.30 | – | –
21 | COc1ccc(OC)c2c(O)cc(C)cc12 [CHEMBL2071229] | Inactive | 4.42 | – | –
22 | COc1cccc2cc(C=O)cc(O)c12 [CHEMBL2071232] | Inactive | 4.00 | – | –
23 | COc1c(O)ccc2c1C(=O)C(C)=CC2=O [CHEMBL2071233] | Inactive | 4.03 | – | –
24 | Cn1cc(C=Nc2ccccc2)c2ccccc21 [CHEMBL2071552] | – | – | Active | 5.49
25 | Cc1ccc(/N=C/c2cn(C)c3ccccc23)cc1 [CHEMBL2071553] | – | – | Active | 5.58
26 | CCOc1ccc(/N=C/c2cn(C)c3ccccc23)cc1 [CHEMBL2071554] | – | – | Active | 5.50
27 | Cn1cc(/C=N/c2ccc(Cl)cc2)c2ccccc21 [CHEMBL2071555] | – | – | Active | 5.67
28 | Cn1cc(/C=N/C(c2ccccc2)c2ccccc2)c2ccccc21 [CHEMBL2071556] | – | – | Active | 5.73

Row | Compound | Outcome [1, 3] | pIC50 Value [2, 4] | Outcome [1, 5] | pIC50 Value [2, 6]
29 | COc1ccc(/N=C/c2cn(C)c3ccccc23)cc1 [CHEMBL2071557] | – | – | Active | 5.46
30 | Cc1ccccc1/N=C/c1cn(C)c2ccccc12 [CHEMBL2071558] | – | – | Active | 5.64
31 | Cn1cc(/C=N/Cc2ccccc2)c2ccccc21 [CHEMBL2071559] | – | – | Active | 5.54
32 | Cn1cc(C2N(c3ccccc3)C(=O)C2(c2ccccc2)c2ccccc2)c2ccccc21 (centres unmarked) [CHEMBL2071560] | – | – | Active | 5.85
33 | Cc1ccc(N2C(=O)C(c3ccccc3)(c3ccccc3)C2c2cn(C)c3ccccc23)cc1 (centres unmarked) [CHEMBL2071561] | – | – | Active | 5.88
34 | CCOc1ccc(N2C(=O)C(c3ccccc3)(c3ccccc3)C2c2cn(C)c3ccccc23)cc1 (centres unmarked) [CHEMBL2071562] | – | – | Active | 5.93
35 | Cn1cc(C2N(c3ccc(Cl)cc3)C(=O)C2(c2ccccc2)c2ccccc2)c2ccccc21 (centres unmarked) [CHEMBL2071563] | – | – | Active | 5.78
36 | Cc1ccc(C2(c3ccc(C)cc3)C(=O)N(c3ccccc3)C2c2cn(C)c3ccccc23)cc1 (centres unmarked) [CHEMBL2071564] | – | – | Active | 5.91
37 | Cc1ccc(N2C(=O)C(c3ccc(C)cc3)(c3ccc(C)cc3)C2c2cn(C)c3ccccc23)cc1 (centres unmarked) [CHEMBL2071565] | – | – | Active | 5.89
38 | CCOc1ccc(N2C(=O)C(c3ccc(C)cc3)(c3ccc(C)cc3)C2c2cn(C)c3ccccc23)cc1 (centres unmarked) [CHEMBL2071566] | – | – | Active | 5.90
39 | Cc1ccc(C2(c3ccc(C)cc3)C(=O)N(c3ccc(Cl)cc3)C2c2cn(C)c3ccccc23)cc1 (centres unmarked) [CHEMBL2071567] | – | – | Active | 5.94
40 | Cc1ccc(-c2c(-c3ccccc3)nc3ccccn23)cc1 [CHEMBL2151857] | – | – | Active | 5.40
41 | COc1ccc(-c2c(-c3ccccc3)nc3ccccn23)cc1 [CHEMBL2151858] | Active | 5.14 | – | –
42 | Oc1ccc(-c2c(-c3ccccc3)nc3ccccn23)cc1 [CHEMBL2151859] | Inactive | 4.40 | – | –
43 | CC(=O)Oc1ccc(-c2c(-c3ccccc3)nc3ccccn23)cc1 [CHEMBL2151860] | Inactive | 4.80 | – | –
44 | CC(C)(C)C(=O)Oc1ccc(-c2c(-c3ccccc3)nc3ccccn23)cc1 [CHEMBL2151861] | Active | 5.15 | – | –
45 | O=[N+]([O-])c1ccc(-c2c(-c3ccccc3)nc3ccccn23)cc1 [CHEMBL2151862] | – | – | Active | 5.31
46 | Nc1ccc(-c2c(-c3ccccc3)nc3ccccn23)cc1 [CHEMBL2151863] | Inactive | 4.37 | – | –
47 | N#Cc1ccc(-c2c(-c3ccccc3)nc3ccccn23)cc1 [CHEMBL2151864] | Inactive | 4.00 | – | –
48 | NC(=O)c1ccc(-c2c(-c3ccccc3)nc3ccccn23)cc1 [CHEMBL2151865] | Inactive | 4.57 | – | –
49 | CCOC(=O)c1ccc(-c2c(-c3ccccc3)nc3ccccn23)cc1 [CHEMBL2151866] | Active | 5.28 | – | –
50 | O=C(O)c1ccc(-c2c(-c3ccccc3)nc3ccccn23)cc1 [CHEMBL2151867] | Inactive | 4.00 | – | –
51 | Clc1cc(Cl)cc(-c2c(-c3ccccc3)nc3ccccn23)c1 [CHEMBL2151868] | Active | 5.11 | – | –
52 | c1ccc(-c2nc3ccccn3c2-c2cccnc2)cc1 [CHEMBL2151869] | Inactive | 4.65 | – | –
53 | c1ccc(-c2nc3ccccn3c2-c2ccncc2)cc1 [CHEMBL2151870] | Active | 5.19 | – | –
54 | c1ccc(-c2nc3ccccn3c2-c2cncnc2)cc1 [CHEMBL2151871] | Inactive | 4.00 | – | –
55 | c1ccc(-c2nc3ccccn3c2-c2ccsc2)cc1 [CHEMBL2151872] | Inactive | 4.84 | – | –
